Reference: patent US9486467B2, “Method of treating colorectal cancer that expresses a mutated APC gene by administering erythromycin or tylosin” (RAMOT AT TEL-AVIV UNIVERSITY LTD., priority 2006, dated 2016)
“Also recorded” adds a separate entry of the source.

Columns and labels:
[1] = test system: APC hotspot stop codon mutations; experiment: Dual luciferase reporter plasmid system for APC stop codon readthrough; format: cell-based; settings: HCT116 colorectal cancer cells; APC hotspots 1061, 1554, 1450; tylosin 4-80 μg/ml
Protocol: HCT116 CRC cells (control cells carrying a wild-type APC) were cultured in Dulbecco's modified Eagle's medium (DMEM) supplemented with 10% fetal calf serum (FCS) and 100 units/ml penicillin or streptomycin. Cells were kept in a humidified, 5% CO2 atmosphere at 37° C. Cells were transfected using JetPEI (PolyPlus Transfection). The cells were transfected with 0.5 μg of the described construct, and 48 hours later, the levels of luciferase were measured with the Luciferase assay kit (Promega, USA), according to the manufacturer's instructions.
A dual luciferase reporter plasmid system was used to measure the effect of tylosin on readthrough of APC hotspot stop codon mutations in colorectal tissue culture cells. In this system, the Renilla luciferase reporter gene is located upstream of the hotspot, and the firefly luciferase reporter gene is located downstream of the hotspot in the APC wild-type or mutated sequences, and both genes are under the transcriptional control of the APC promoter (FIG. 2a). The Renilla luciferase gene serves as an internal normalization control for transfection efficiency, mRNA abundance and the levels of translation initiation, since translation of both enzymes originates from the same translation initiation signal. Following normalization, the differences in firefly luciferase activities reflect the frequency of stop codon readthrough. Constructs containing either wild-type or the APC mutated sequence at the APC hotspot codons 1061 or 1554 were transfected into HCT116 colorectal cancer cells grown in the presence of varying amounts of antibiotics of the macrolide family.

HT-29 CRC cells [2] = experiment: HT-29 CRC cell tumorigenicity in nude mice, tylosin in drinking water; format: in vivo; settings: 0.4 μg/ml tylosin in the drinking water
Protocol: Six female Nude mice (SCID) were injected with 1×10^7 HT-29 cells. For fourteen days treated groups were fed a normal mouse diet and received drinking water containing 0.4 mg/ml of tylosin. The control group received regular drinking water. Following fourteen days, the mice were sacrificed and the tumors were removed and weighed.
Truncation of APC correlates with tumor formation (15). The present inventor predicted that restoration of functional, full-length APC protein in a cell line containing only truncated APC would lead to a decrease in tumorigenesis. 1×10^7 HT-29 CRC cells containing a hotspot mutation at codon 1554 of APC were injected into twelve nude SCID mice. The treated mice group (six mice) received 0.4 μg/ml tylosin in the drinking water. […] Following fourteen days of receiving drinking water with or without tylosin, the mice were sacrificed and the tumor was removed. The tumors were weighed and the tumor mass of the tylosin-treated mice was, on average, approximately 40% lower than that of the control group (FIG. 4b).

APC = experiment: Anti-APC immunoblot of tumor lysates from treated mice; format: in vivo; settings: tumors of mice treated with 0.8 mg/ml, 0.4 mg/ml tylosin versus NT, HCT116 wild-type APC as size marker
Protocol: Tumors from control and treated mice were lysed, run on an SDS-PAGE gel, and transferred to a nitrocellulose membrane. The membrane was incubated with an anti-APC antibody (oncogene APC AB-2).

β-catenin/Tcf signaling = experiment: pTOPFLASH luciferase reporter of β-catenin/Tcf-mediated transcription; format: cell-based; settings: CX-1 CRC cells (stop mutation in APC hotspot 1554); 8 μg/ml tylosin; 48 h after transfection
Protocol: Cells were maintained as described above. Cells were transfected with 0.5 μg of pTOPFLASH and 0.05 μg Renilla (Promega, USA). Forty-eight hours later, the levels of luciferase were measured by using the Luciferase assay kit (Promega, USA).
Colorectal cell lines show high levels of β-catenin/Tcf-mediated transcription due to mutations that lead to over-activation of the Wnt signaling pathway. To measure the effect of tylosin on levels of β-catenin/Tcf-mediated transcription, CX-1 CRC cells containing a stop mutation in APC hotspot 1554 were transfected with pTOPFLASH, a luciferase reporter plasmid that is widely used for measuring transcriptional activity of Tcf and β-catenin (pTOPFLASH contains multimerized Tcf-binding sites linked to a luciferase reporter).

HT-29 CRC cells [3] = experiment: H&E histology of tumors from control and tylosin-treated mice; format: in vivo; settings: tumor sections of tylosin-treated mice versus control
From the text: Tumor sections from control and treated mice were stained with H&E stain. The slides were examined by a professional pathologist.
Tumor sections from control and tylosin-treated mice were stained with Hematoxylin and Eosin (H&E) stain, a stain used routinely for tissue sections, and were examined by a professional pathologist.

Molecule: CC[C@H]1OC(=O)[C@H](C)[C@@H](O[C@H]2C[C@@](C)(OC)[C@@H](O)[C@H](C)O2)[C@H](C)[C@@H](O[C@@H]2O[C@H](C)C[C@H](N(C)C)[C@H]2O)[C@](C)(O)C[C@@H](C)C(=O)[C@H](C)[C@@H](O)[C@]1(C)O [erythromycin, Erythromycin]
- APC stop codon readthrough (firefly luciferase normalized to Renilla) [1]: more moderate levels of stop codon readthrough

Molecule: CC[C@H]1OC(=O)C[C@@H](O)[C@H](C)[C@@H](O[C@@H]2O[C@H](C)[C@@H](O[C@H]3C[C@@](C)(O)[C@@H](O)[C@H](C)O3)[C@H](N(C)C)[C@H]2O)[C@@H](CC=O)C[C@@H](C)C(=O)/C=C/C(C)=C/[C@@H]1CO[C@@H]1O[C@H](C)[C@@H](O)[C@@H](OC)[C@H]1OC [tylosin]
- tumor size versus control mice (HT-29 CRC cells [2]; nude SCID mice injected with 1×10^7 HT-29 cells, FIG. 4: ten days post-injection): reduced tumor size compared with the control mice; also recorded: smaller compared to that of the control group
- tumor mass lower than that of the control group, on average (HT-29 CRC cells [2]; nude SCID mice, HT-29 cells, fourteen days): approximately 40%
- expression of full-length APC in tumors (anti-APC antibodies) (APC): a higher amount of tylosin increased the expression of the full-length protein accordingly
- expression of full-length APC in tumors (anti-APC antibodies) (APC; listed as Tylosin): expression of full-length APC
- reduction in β-catenin/Tcf/LEF transcriptional signaling (β-catenin/Tcf signaling): approximately 50%
- blood supply to the tumor (H&E stain) (HT-29 CRC cells [3]): not affected
- tumor histology (H&E stain) (HT-29 CRC cells [3]): necrosis and death of tumor cells
- APC stop codon readthrough (firefly luciferase normalized to Renilla) [1]: significant levels of APC stop codon readthrough; also recorded: higher levels of readthrough compared to erythromycin, spiramycin, and gentamycin

Molecule: Spiramycin
- APC stop codon readthrough (firefly luciferase normalized to Renilla) [1]: more moderate levels of stop codon readthrough

Molecule: gentamycin
- APC stop codon readthrough (firefly luciferase normalized to Renilla) [1]: more moderate levels of stop codon readthrough
